Measurements published in patent US10973782B2, “Pharmaceutical composition for improving or preventing progression of chronic kidney disease” (Frimline Private Limited, priority 2017, dated 2021).

Test system: 5/6 Nephrectomy induced chronic kidney disease (CKD)
Test: 5/6 Nephrectomy induced chronic kidney disease in rat
Type: in vivo, rat (male Wistar)
Conditions: 5/6 nephrectomy rats, mean; for Serum Analysis BUN / Serum Analysis Creatinine / Serum Analysis IL-6 / Urine Analysis Glomerular Filtration Rate: daily p.o. treatment for 10 weeks, end of 10th week; for % Decreased Creatinine / % Decreased in BUN / % Decreased in IL-6: serum; for % Decreased Creatinine / % Decreased in BUN / % Decreased in IL-6 / % Increased GFR: daily p.o. 10 weeks; for % Increased GFR: urine analysis
Description: Screening effect against 5/6 Nephrectomy induced chronic kidney disease (CKD) of synergistic combination or composition/formulation comprising PEA and other natural ingredients in rat. The following trials were carried out:
54 male Wistar rats (Rat Rattus) (6 per group) were maintained in animal house in a light/dark atmosphere based on a 12 hour cycle having temperature and relative humidity in the range of 25±2° C. and 30-70% respectively. To maintain the appropriate conditions, temperature and relative humidity were recorded three times daily. During complete experiment, animals were supplied with the standard certified rat pellet feed (manufactured by Keval sales corporation, Vadodara) and drinking water treated by the reverse osmosis ad libitum.
In order to evaluate the activity against chronic kidney disease, fifty four (54) male rats were screened and divided in to nine groups. For a comparative analysis, groups were divided as sham control (Group 1), disease control (Group 2), treatment groups with individual components (Group 3, Group 4, Group 5 and Group 6 as PEA, Cholecalciferol, Quercetin and Resveratrol respectively), test composition formulation of the present invention (Group 7 and Group 8 as PEA combinations) and reference standard drug (Group 9).
The animals under consideration were examined for a study period of 10 weeks and two-stage surgical procedure for kidney ligation and removal were performed.
Stage one: A ventral midline incision into the abdomen was made to expose the animal's left kidney, and the organ was freed from the surrounding tissue. A piece of suture was placed and ligated around each pole of the kidney at its one-third position. The one-third kidney on each pole was excised beyond the ligatures and the abdominal incision was closed.
Stage two: This procedure was performed 5-7 days after stage one. The animals were placed in ventral recumbancy and an incision was made parallel to the midline. The abdominal cavity was entered and the right kidney was made free from the surrounding tissue. The kidney was gently pulled out from the incision, and the adrenal gland was freed and replaced into the abdominal cavity. The renal blood vessels and the ureter were ligated or cauterized. The kidney was then removed by transecting the vessels and ureter just distal to the ligature or cauterized section. The skin incision was closed with wound clips.
Treatment. All treatment groups were treated on daily basis for 10 weeks after stage two of surgery. After completion of the study at the end of 10th week, each group was analyzed in terms of the evaluating parameters such as blood collection, biochemistry analysis, urine analysis and histopathology of kidney.

Compound	Serum Analysis BUN [mg/dL]	Serum Analysis Creatinine [mg/dL]	Serum Analysis IL-6 [pg/mL]	Urine Analysis Glomerular Filtration Rate [mL/min/kg]	% Decreased Creatinine [%]	% Decreased in BUN [%]	% Decreased in IL-6 [%]	% Increased GFR [%]
C=C1CC[C@H](O)C/C1=C/C=C1\CCC[C@]2(C)[C@@H]([C@H](C)CCCC(C)C)CC[C@@H]12 [Cholecalciferol]	75.63	1.40	178.45	5.65	7.02	8.05	1.22	2.73
CCCCc1nc(Cl)c(CO)n1Cc1ccc(-c2ccccc2-c2nn[nH]n2)cc1 [Losartan]	52.81	1.22	141.67	6.80	18.98	35.80	21.58	23.64
CCCCCCCCCCCCCCCC(=O)NCCO [PEA, Palmitoylethanolamide]	60.98	1.12	162.18	6.50	25.63	25.87	10.22	18.18
O=c1c(O)c(-c2ccc(O)c(O)c2)oc2cc(O)cc(O)c12 [Quercetin]	76.62	1.44	175.15	5.64	4.02	6.85	3.04	2.55
Oc1ccc(C=Cc2cc(O)cc(O)c2)cc1 [Resveratrol]	74.51	1.41	174.42	5.75	6.30	9.42	3.45	4.55
